“Also recorded” adds a separate entry of the source.
How the values were obtained:
[1] = biological target: T1, wild-type ELIC (Dickeya chrysanthemi, UniProt P0C7B7, INS163G); assay: Two-electrode voltage clamp, whole-cell currents of wild-type ELIC expressed in Xenopus laevis oocytes; assay type: cell-based, Erwinia chrysanthemi
T1 construct: expressed in transfected cells; host or cells: Xenopus laevis oocytes injected with cRNA from ELIC-pTLN
Procedure: (§1) Stage V-VI Xenopus laevis oocytes were isolated[72] and deflocculated enzymatically in ND96 buffer without Ca^2+ (96 mM NaCl, 2 mM KCl, 1 mM MgCl2, 2 mM pyruvate, 5 mM HEPES, pH 7.4), but supplemented with 1 mg/mL collagenase B and 1 mg/mL trypsin inhibitor, for 2 h at room temperature under constant stirring. The deflocculation buffer was then gradually removed by washing the oocytes in ND96 buffer (96 mM NaCl, 2 mM KCl, 1 mM MgCl2, 1 mM CaCl2, 2 mM pyruvate, 5 mM HEPES, pH 7.4) for several iterations. The oocytes were then allowed to stir for an additional hour at room temperature under constant stirring with the buffer being periodically replaced until clear. To obtain optimal receptor expression, individually selected and healthy oocytes were injected with 0.2 ng cRNA for wild-type ELIC and 5 ng cRNA for mutants. Subsequently, oocytes were incubated for one day at 16 °C in ND96^+ buffer (96 mM NaCl, 2 mM KCl, 1 mM MgCl2, 1 mM CaCl2, 2 mM pyruvate, and 5 mM HEPES at pH 7.6). After expression, injected oocytes were placed in a RC-1Z oocyte chamber (Harvard Apparatus; Hamden, CT) containing buffer (pH 7.4) composed of 150 mM NaCl, 0.5 mM BaCl2, 10 mM HEPES, and 1 mM dithiothreitol or 1 µM atropine if cysteamine, or ACh, was used in the experiment, respectively. The presence of the reducing agent, dithiothreitol, ensures that the sulfhydryl group of cysteamine remains reduced.
(§2) Once in the oocyte chamber, whole-cell currents were recorded using a two-electrode voltage-clamp apparatus (OC-725C oocyte clamp; Harvard Apparatus), with a buffer flow rate of 5–10 mL min^−1. Currents in response to various additions of cysteamine and/or ACh, were measured with the transmembrane voltage clamped at −60 mV. Dose response curves for each wild-type and mutant ELIC were acquired from at least five oocytes in two different batches.
(§3) For identifying the half maximal effective concentration (EC50) and apparent Hill coefficient (nH) of cysteamine, dose response curves were created by taking the magnitude of each cysteamine-activated peak current (I) and normalizing this value to the maximal peak current in the presence of excess agonist (Imax). The log (base 10) cysteamine concentration in molar was then plotted on the x-axis against the fractional response (I/Imax) on the y-axis. The data was fitted using nonlinear regression with a variable slope sigmoidal dose response (Eq. 1, below) in GraphPad Prism (v.8.0.0).1 y=1/1+10^nH^LogEC50−X
Individual EC50 and Hill coefficients were averaged for each oocyte to derive a mean ± standard deviation. […] […] The log (base 10) ACh concentration was then plotted on the x-axis against the fractional response (I/Io) on the y-axis. Subsequent steps were the same as above for deriving a cysteamine EC50 and Hill coefficient. The individual IC50 and Hill coefficients were averaged for each oocyte to derive a mean ± one standard deviation. Lastly, to identify four normalized response values, cysteamine at the 10% maximal effective concentration (EC10), 20% maximal effective concentration (EC20), EC50 and 90% maximal effective concentration (EC90), was applied in the presence and absence of 25 mM ACh. The cysteamine-activated peak current with 25 mM ACh, was normalized to the cysteamine-activated peak current without ACh.

[2] = biological target: T2, ELIC L240A (L9′A) (Dickeya chrysanthemi, UniProt P0C7B7, L239A); assay: Two-electrode voltage clamp, L240A (L9′A) mutant ELIC expressed in Xenopus laevis oocytes; assay type: cell-based, Erwinia chrysanthemi
T2 construct: expressed in transfected cells; host or cells: Xenopus laevis oocytes injected with cRNA from ELIC-pTLN
Procedure: as §1, §2, §3
Individual EC50 and Hill coefficients were averaged for each oocyte to derive a mean ± standard deviation. For identifying a half maximal inhibitory concentration (IC50) and Hill coefficient of ACh, a concentration of cysteamine corresponding to its EC50 was used in the presence of increasing concentrations of ACh. […]

NCCS [cysteamine]
Cysteamine concentration corresponding to EC10 ([1]; WT): 200 µM | Cysteamine concentration corresponding to EC20 ([1]; WT): 300 µM | Activation Hill coefficient ([1]; WT ELIC, agonist activation): 2.6 ± 0.4 | EC50 ([1]; WT ELIC, agonist-activated peak current, −60 mV, mean ± s.d., read-out: Activation EC50): 600 ± 100 µM | Peak current on application of ligand alone ([1]; WT, ACh 0.5 mM to 50 mM, followed by 5 mM cysteamine): robust peak current | EC90 ([1]; WT, read-out: Cysteamine concentration corresponding to EC90): 1300 µM | Current on application of ligand alone ([2]; L9′A, 30 s applications of ACh 0.5 to 50 mM, then 5 mM cysteamine): robust peak current; also recorded: robust activation | Activation Hill coefficient ([2]; L240A (L9′A), cysteamine as agonist): 2.8 ± 0.1 | EC50 ([2]; L240A (L9′A), cysteamine as agonist, read-out: Activation EC50): 150 ± 10 µM

Source: PMC9674596, “Origin of acetylcholine antagonism in ELIC, a bacterial pentameric ligand-gated ion channel” (Communications Biology, 2022)
